Data from PMC12410356 (International Journal for Parasitology: Drugs and Drug …, 2025).

Tests used:
[1] = test system: E. multilocularis metacestode vesicles; assay: Phosphoglucose isomerase (PGI) release assay (damage-marker release) on metacestode vesicles; format: cell-based, Echinococcus multilocularis; details: 10 μM; for PGI d5 (relative PGI release): 5 days; for PGI d12 (relative PGI release): 12 days
Method: In order to quantify the drug-induced damage on whole metacestode vesicles, phosphoglucose isomerase (PGI) assay was performed as described previously ([Stadelmann et al., 2010]) with few adaptations published recently ([Kaethner et al., 2023]). In short, 8 to 12 weeks-old metacestode vesicles were purified using 2 % sucrose with subsequent washes in PBS. Metacestode vesicles were diluted in two volumes of DMEM without phenol red containing penicillin (100 U/mL) and streptomycin (100 μg/mL). […] 0.1 % DMSO was used as a negative solvent control and 0.1 % Triton X-100 was used as a positive total damage control. Metacestode vesicles were incubated under a humid, 5 % CO2 atmosphere at 37 °C. After five and twelve days, supernatant was taken and pictures were made using a Nikon SMZ18 stereo microscope (Nikon, Basel, Switzerland) at 7.5 × magnification. PGI activity in the supernatants was measured on a HIDEX Sense microplate reader (Hidex, Turku, Finland). The corresponding values of the DMSO controls were subtracted from the values of the compounds and then PGI activity was calculated relative to 0.1 % Triton X-100. […] IC50 values were calculated applying the 3 parameter Weibull type 1 in R for each of the three independent experiments ([Ritler et al., 2020]).

[2] = test system: E. multilocularis metacestode vesicles; assay: Metacestode vesicle viability assay (ATP, CellTiter-Glo); format: cell-based, Echinococcus multilocularis
Method: Viability was assessed after 12 days using the same metacestode vesicles as for the PGI release assay. Triton X-100 was added to each well to a final concentration of 0.1 %. Subsequently the metacestode vesicles were broken mechanically and 50 μL of the supernatant was mixed with 50 μL of CellTiter-Glo® buffer (Promega, Dübendorf, Switzerland). Measurements were performed on a HIDEX Sense microplate reader.

[3] = overview screen, singlets, relative to 0.1 % Triton X-100, DMSO subtracted
[4] = overview screen, 10 μM, singlets, 12 days, relative to DMSO control
[5] = confirmation screen, triplicates, mean

SMILES	PGI d5 (relative PGI release) [1, 3]	PGI d12 (relative PGI release) [1, 3]	Viability d12 (relative viability) [2, 4]	PGI d5 (relative PGI release) [1, 5]	PGI d12 (relative PGI release) [1, 5]	Viability d12 (relative viability) ([2]; confirmation screen, 10 μM, triplicates, mean, 12 days)	Viability d12 (relative viability) ([2]; 10 µM)
COc1cc(Cc2cnc(N)nc2N)cc(OC)c1OC [MMV000028]	-3.0237%	-24.4435%	71.724%	–	–	–	–
COc1cc(C)c2c(Oc3cccc(C(F)(F)F)c3)c(OC)cc(NC(C)CCCN)c2n1.O=C(O)CCC(=O)O (stereo not drawn) [MMV000043]	8.8572%	-12.8411%	100.948%	–	–	–	–
CCC[C@@H]1C[C@@H](C(=O)N[C@@H]([C@H]2O[C@H](SC)[C@H](O)[C@@H](O)[C@H]2O)[C@H](C)Cl)N(C)C1.Cl [MMV000051]	15.4885%	58.7211%	23.7506%	0.38%	-0.19%	61.99%	–
CONC(=N)c1ccc(-c2ccc(-c3ccc(C(=N)NOC)cc3)o2)cc1 [MMV000059]	-1.411%	-24.9567%	226.694%	–	–	–	–
CCN(CC)CCn1c(=N)n(CC(O)COc2ccc(Cl)cc2Cl)c2ccccc21 (stereo not drawn) [MMV000725]	-2.18%	-13.7901%	72.9764%	–	–	–	–
O=C(c1ccccc1)N1CCN(c2ccccc2NC(=O)C(Cl)(Cl)Cl)CC1 [MMV001014]	0.3132%	-4.23%	104.308%	–	–	–	–
Cc1c(OCC(F)(F)F)ccnc1C[S+]([O-])c1nc2ccccc2[nH]1 (stereo not drawn) [MMV001438]	1.578%	-2.884%	96.7343%	–	–	–	–
CCCCc1ccc(C(=O)O)nc1 [MMV001726]	-0.06574%	-20.229%	162.188%	–	–	–	–
CC1=C(/C=C/C(C)=C/C=C/C(C)=C/C(=O)Nc2ccc(O)cc2)C(C)(C)CCC1 [MMV001793]	0.1304%	-19.3598%	54.0144%	–	–	–	–
Clc1ccc(Cn2c(CN3CCCC3)nc3ccccc32)cc1 [MMV002015]	-0.9034%	-18.1648%	–	–	–	–	85.4319%
NNC(=O)c1ccncc1 [MMV002169]	1.814%	-1%	113.159%	–	–	–	–
Cc1onc(-c2ccccc2)c1-c1ccc(S(N)(=O)=O)cc1 [MMV002260]	0.1005%	-4.614%	84.2251%	–	–	–	–
OC(Cn1cncn1)(Cn1cncn1)c1ccc(F)cc1F [MMV002337]	-1.63%	-24.335%	76.1493%	–	–	–	–
CCn1cc(C(=O)O)c(=O)c2cc(F)c(N3CCNC(C)C3)c(F)c21.Cl (stereo not drawn) [MMV002350]	0.8503%	0.3517%	–	–	–	–	92.559%
C[C@@H]1O[C@@H]1P(=O)(O)O [MMV002354]	4.505%	-11.1824%	22.2102%	–	–	–	–
NC[C@H]1O[C@H](O[C@H]2[C@H](O)[C@@H](O[C@H]3O[C@H](CO)[C@@H](O)[C@H](N)[C@H]3O)[C@H](N)C[C@@H]2N)[C@H](N)C[C@@H]1O [MMV002459]	-1.087%	-12.65%	35.1523%	–	–	–	–
CSc1ccc2c(c1)C(N1CCN(C)CC1)Cc1ccccc1S2 (stereo not drawn) [MMV002505]	0.4968%	-0.02837%	82.0463%	–	–	–	–

SMILES	PGI d5 (relative PGI release) [1, 3]	PGI d12 (relative PGI release) [1, 3]	Viability d12 (relative viability) [2, 4]	PGI d5 (relative PGI release) [1, 5]	PGI d12 (relative PGI release) [1, 5]	Viability d12 (relative viability) ([2]; confirmation screen, 10 μM, triplicates, mean, 12 days)	Viability d12 (relative viability) ([2]; 10 µM)
CC[C@@H]1C(=O)OC[C@@H]1Cc1cncn1C.Cl [MMV002516]	-2.121%	-7.265%	84.666%	–	–	–	–
CO/N=C(\C(=O)N[C@@H]1C(=O)N2C(C(=O)OCOC(=O)C(C)(C)C)=C(/C=C\c3scnc3C)CS[C@H]12)c1csc(N)n1 [MMV002560]	-2.539%	-11.7788%	19.8723%	–	–	–	–
O=C1CCC(N2C(=O)c3ccccc3C2=O)C(=O)N1 (stereo not drawn) [MMV002612]	-1.046%	-2.884%	–	–	–	–	99.2866%
NCc1ccc(S(N)(=O)=O)cc1 [MMV002665]	0.8805%	-5.499%	–	–	–	–	140.59%
C[N+]1(C)CCCC(OC(=O)C(O)(c2ccccc2)c2ccccc2)C1 (stereo not drawn) [MMV002676]	-4.414%	-4.73%	80.9524%	–	–	–	–
Cc1cc(C2CCCCC2)n(O)c(=O)c1 [MMV002731]	-0.5492%	-23.4097%	–	–	–	–	50.1817%
Cc1onc(-c2ccccc2Cl)c1C(=O)N[C@@H]1C(=O)N2[C@@H]1SC(C)(C)[C@@H]2C(=O)O [MMV002740]	-1.463%	-24.5158%	–	–	–	–	55.1081%
COc1ccc2c(c1OC)C(=O)OC2C1c2c(cc3c(c2OC)OCO3)CCN1C (stereo not drawn) [MMV002780]	-0.3679%	-3.872%	419.126%	–	–	–	–
C[C@H]1CC[C@]2(NC1)O[C@H]1C[C@H]3[C@@H]4CC[C@H]5C[C@@H](O)CC[C@]5(C)[C@H]4CC[C@]3(C)[C@H]1[C@@H]2C.Cl [MMV003069]	-0.8739%	-0.2652%	243.729%	–	–	–	–
CC[C@H]1OC(=O)[C@H](C)[C@@H](O[C@H]2C[C@@](C)(OC)[C@@H](O)[C@H](C)O2)[C@H](C)[C@@H](O[C@@H]2O[C@H](C)C[C@H](N(C)C)[C@H]2O)[C@](C)(O)C[C@@H](C)C(=O)[C@H](C)[C@@H](O)[C@]1(C)O [MMV003137]	1.971%	-21.4001%	63.8752%	–	–	–	–
COC(=O)Nc1nc2cc(Sc3ccccc3)ccc2[nH]1 [MMV003143]	2.636%	9.38%	13.6935%	–	–	–	–
NC(=O)c1cnccn1 [MMV003249]	1.909%	-3.346%	123.464%	–	–	–	–
Cc1oncc1C(=O)Nc1ccc(C(F)(F)F)cc1 [MMV003291]	0.3849%	-17.479%	–	–	–	–	99.9529%
CC#C[C@]1(O)CC[C@H]2[C@@H]3CCC4=CC(=O)CCC4=C3[C@@H](c3ccc(N(C)C)cc3)C[C@@]21C [MMV003297]	-0.9731%	-0.6398%	–	–	–	–	92.6641%
COc1ccc(C2CNC(=O)C2)cc1OC1CCCC1 (stereo not drawn) [MMV003738]	-0.5058%	-19.6179%	180.575%	–	–	–	–
Nc1nc(=O)[nH]cc1F [MMV004508]	-1.885%	-20.764%	–	–	–	–	219.514%
